This note sets out measurements from ChEMBL document CHEMBL1122628, “Nonsteroidal antiinflammatory agents. 14. Synthesis and pharmacological profile of 6-chloro-5-(cyclopentylmethyl)indan-1-carboxylic acid” (J Med Chem, 1984).

For data set [1], the species on record is Rattus norvegicus. Put plainly: Gastrointestinal tolerability was evaluated in rats and amount blood loss was reported. The data set is classed as functional.
The subject of data set [2] is Rattus norvegicus. The data set is described as follows: Antiinflammatory activity was evaluated in an adjuvant arthritis (subchronic inflammation) test, after administering compound orally in rats. The class given is functional. The settings on record: po.
The test system of data set [3] is Rattus norvegicus. Put plainly: Antiinflammatory activity was evaluated in an carrageenan edema (acute inflammation) test, after administering compound orally in rats. The data set is classed as functional. The following applies: po.
For data set [4], the species on record is Rattus norvegicus. Put plainly: Gastrointestinal tolerability was evaluated under chronic conditions, in rats. The ulcerogenic dose from a 4-week toxicity study, was reported. The data set is classed as functional.
Data set [5] is filed under the species Rattus norvegicus. Put plainly: Gastrointestinal tolerability was evaluated under chronic conditions, in rats. The ulcerogenic dose was reported. The data set is classed as functional.
The species named for data set [6] is Rattus norvegicus. Put plainly: Gastrointestinal tolerability was evaluated under acute conditions, in rats. The ulcerogenic dose was reported. The data set is classed as functional.
For data set [7], the species on record is Rattus norvegicus. The data set is described as follows: Gastrointestinal tolerability was evaluated in rats and amount blood loss was reported. The data set is classed as functional.
For data set [8], the system named is Rattus norvegicus. The data set is described as follows: Antiinflammatory activity was evaluated in an adjuvant arthritis (subchronic inflammation) test after administering compound orally in rats. The class given is functional. The following applies: po.
Data set [9] concerns Rattus norvegicus. The data set is described as follows: Antiinflammatory activity was evaluated in an carrageenan edema (acute inflammation) test, after administering compound orally in rats; 15-30. The data set is classed as functional. The settings on record: po.
For data set [10], the species on record is Rattus norvegicus. The data set is described as follows: Gastrointestinal tolerability was evaluated under acute conditions, in rats. The ulcerogenic dose was reported. The data set is classed as functional.
Data set [11] is filed under the species Rattus norvegicus. The data set is described as follows: Gastrointestinal tolerability was evaluated under chronic conditions, in rats. The ulcerogenic dose was reported. The class given is functional.
The species entered for data set [12] is Rattus norvegicus. Put plainly: Gastrointestinal tolerability was evaluated in rats and compound dose that causes lethality was reported. The class given is toxicity, organism-based. The following applies: in vivo.
In data set [13] the test system is Rattus norvegicus. The data set is described as follows: Antiinflammatory activity was evaluated in an adjuvant arthritis (subchronic inflammation) test after administering compound orally in rats. The data set is classed as functional. The following applies: po.
Data set [14] relates to Rattus norvegicus. The data set is described as follows: Antiinflammatory activity was evaluated in an carrageenan edema (acute inflammation) test, after administering compound orally in rats. The class given is functional. The settings on record: po.
Data set [15] deals with Rattus norvegicus. Put plainly: Antiinflammatory activity was evaluated in an carrageenan edema (acute inflammation) test, after administering compound orally in rats; 50-100. The data set is classed as functional. The following applies: po.
Data set [16] is filed under the species Rattus norvegicus. The data set is described as follows: Gastrointestinal tolerability was evaluated under chronic conditions, in rats. The ulcerogenic dose was reported; 30-100. The class given is functional.
The species entered for data set [17] is Rattus norvegicus. Put plainly: Gastrointestinal tolerability was evaluated in rats and compound dose that causes lethality was reported. The class given is toxicity, organism-based. The following applies: in vivo.

Each structure is given as a SMILES string.

As for `O=C(O)C1CCc2cc(CC3CCCC3)c(Cl)cc21` (configuration not stated), in the data set filed under Rattus norvegicus [1], the Blood loss is more than 100 mg/kg. Also, the ED40 with Rattus norvegicus [2] came out at 30 mg/kg. In addition, in the data set on Rattus norvegicus [3], it took a dose of 30 mg/kg to reach the 50% effect level (ED50). Further, the UD in the data set listed under Rattus norvegicus [4] is more than 400 mg/kg; in the data set filed under Rattus norvegicus [5], more than 100 mg/kg; in the data set filed under Rattus norvegicus [6], more than 400 mg/kg.
In turn, `CC(C(=O)O)c1ccc2oc(-c3ccc(Cl)cc3)nc2c1` (configuration not stated) [BENOXAPROFEN] came in with a Blood loss in the data set listed under Rattus norvegicus [7] of less than 50 mg/kg. For the same molecule, in the data set on Rattus norvegicus [8], the ED40 was found to be 10 mg/kg. Further, in the data set on Rattus norvegicus [9], it took a dose of 15 mg/kg to reach the 50% effect level (ED50). Moreover, the UD in the data set filed under Rattus norvegicus [10] was more than 200 mg/kg; in the data set filed under Rattus norvegicus [11], less than 30 mg/kg. In the data set listed under Rattus norvegicus [12], this molecule showed a Lethality of less than 50 mg/kg.
Consider `O=C(O)C1CCc2cc(C3CCCCC3)c(Cl)cc21` (configuration not stated) [CLIDANAC], for which the ED40 in the data set with Rattus norvegicus [2] is 4 mg/kg. In addition, it took a dose of 4 mg/kg to reach the 50% effect level with Rattus norvegicus [3] (ED50). The UD in the data set filed under Rattus norvegicus [6] was less than 3 mg/kg.
In the data set listed under Rattus norvegicus [7], `O=C(O)Cc1ccccc1Nc1c(Cl)cccc1Cl` [DICLOFENAC] gave a Blood loss of 20 mg/kg. Besides, the ED40 in the data set on Rattus norvegicus [13] came to 2 mg/kg. In addition, in the data set with Rattus norvegicus [14], the ED50 is 2 mg/kg. For the same molecule, the UD in the data set listed under Rattus norvegicus [11] and in the data set filed under Rattus norvegicus [6] was 20 mg/kg each time.
Molecule `CC(C)Cc1ccc(C(C)C(=O)O)cc1` (configuration not stated) [IBUPROFEN] registered a Blood loss in the data set filed under Rattus norvegicus [7] of 200 mg/kg. Also, the ED40 in the data set on Rattus norvegicus [8] was more than 150 mg/kg. In addition, the ED50 with Rattus norvegicus [15] was 50 mg/kg. In addition, the UD in the data set listed under Rattus norvegicus [10] and in the data set listed under Rattus norvegicus [16] was 30 mg/kg throughout. In the data set listed under Rattus norvegicus [12], this molecule showed a Lethality of 400 mg/kg.
In turn, `COc1ccc2c(c1)c(CC(=O)O)c(C)n2C(=O)c1ccc(Cl)cc1` [INDOMETHACIN] returned a Blood loss in the data set filed under Rattus norvegicus [1] of 4 mg/kg. Besides, the ED40 in the data set on Rattus norvegicus [2] was determined as 2 mg/kg. The same molecule gave an ED50 in the data set with Rattus norvegicus [3] of 4 mg/kg. The UD in the data set filed under Rattus norvegicus [5] and in the data set listed under Rattus norvegicus [6] was 4 mg/kg each time. In the data set filed under Rattus norvegicus [17], the Lethality amounted to 8 mg/kg.
The molecule `COc1ccc2cc([C@H](C)C(=O)O)ccc2c1` [NAPROXEN] had a Blood loss in the data set filed under Rattus norvegicus [1] of more than 30 mg/kg. In addition, the ED40 with Rattus norvegicus [2] was 10 mg/kg. This molecule had an ED50 in the data set with Rattus norvegicus [3] of 15 mg/kg. This molecule also returned a UD in the data set filed under Rattus norvegicus [6] of 5 mg/kg. The molecule also returned a Lethality in the data set filed under Rattus norvegicus [17] of more than 30 mg/kg.
